# Columns and labels:
# [1] = system: Sulindac reductase activity in calf liver; experiment: Sulindac reductase activity in calf liver fractions; assay type: biochemical, bovine; conditions: mitochondria, S-100 and S-100 pellet of liver; preliminary evidence
# Method: Mammalian enzymes. […] To prepare mitochondria, the S10 pellets were suspended in 20 ml buffer A. […] The tubes were centrifuged at 24,000×g for 24 min. The pellets were resuspended in buffer A and centrifuged at 20,000×g for 15 min. The pellets (containing mitochondria) were suspended in 2 ml of buffer A. All fractions were stored at -80° C.
# [2] = system: Membrane Msr (mem-R,S-Msr); experiment: Extraction reductase assay, sulindac as substrate; assay type: biochemical, E. coli; conditions: for Nmoles formed: 35 μg of membrane fraction
# [3] = system: Normal Lung cells; experiment: Viability of normal lung cells exposed to TBHP (MTS assay); assay type: cell-based; conditions: 500 μM for 48 hr, then TBHP 2 hr
# Method: Normal lung cells were treated with 500 μM sulindac-(R+S; near 50% each), 500 μM sulindac-R (>99% R; <1% S) or 500 μM sulindac-S (>99% S; <1% R) for 48 hr. The sulindac-R and sulindac-S samples were obtained from a racemic mixture of epimers using a chiral column analogous to the process described above. The cells were washed and then exposed to the indicated concentration of tert-Butyl Hydroperoxide (TBHP) for 2 hr. Cell viability was measured using the standard MTS assay. A background absorbance of 0.12 was subtracted from average of four replicate samples. The data are plotted as a bar graph because the concentrations are not in equal intervals. The error bars are the SEM of four replicate samples. The data are presented on three separate graphs using the untreated samples from that plate.
# [4] = system: rat hearts; experiment: Ischemia/reperfusion in Langendorff heart, LDH release; assay type: in vivo, rats; conditions: 0.1 mg in diet for 2 days; ischemia 45 minutes, reperfusion 2 hours
# Method: […]. […] The hearts were removed, exposed to ischemia for 45 minutes and then perfused for 2 hours (reperfusion) using a Langendorff procedure. The cellular damage was measured by assaying for the release of lactic dehydrogenase (LDH).
# [5] = system: Cancer Lung cells; experiment: Conversion of sulindac epimers to the sulfide in cells; assay type: in vitro ADME; conditions: 200 μM epimer, 4 hours, serum-free medium
# Method: (§1) After incubation, the cells are collected, rinsed and lysed with acetonitrile. The cytosolic contents are separated on a C-18 column.
# [6] = system: Cancer Skin (skin SCC) cells; experiment: as above; assay type: in vitro ADME; conditions: 200 μM epimer, 4 hours, serum-free medium
# Method: as §1
# [7] = system: HeLa cells; experiment: as above; assay type: in vitro ADME; conditions: 200 μM epimer, 4 hours, serum-free medium
# Method: as §1
# [8] = system: Normal Cardiomyocyte; experiment: as above; assay type: in vitro ADME; conditions: 200 μM epimer, 4 hours, serum-free medium
# Method: as §1
# [9] = system: Normal Lung cells; experiment: as above; assay type: in vitro ADME; conditions: 200 μM epimer, 4 hours, serum-free medium
# Method: as §1
# [10] = target: T1, MsrA (Escherichia coli, UniProt P0A744); experiment: Reductase assay with TLC of products; conditions: 100 nmoles substrate, 3 μg MsrA, 15 mM DTT, 2 hours 37° C.
# T1 sequence (P0A744 whole entry): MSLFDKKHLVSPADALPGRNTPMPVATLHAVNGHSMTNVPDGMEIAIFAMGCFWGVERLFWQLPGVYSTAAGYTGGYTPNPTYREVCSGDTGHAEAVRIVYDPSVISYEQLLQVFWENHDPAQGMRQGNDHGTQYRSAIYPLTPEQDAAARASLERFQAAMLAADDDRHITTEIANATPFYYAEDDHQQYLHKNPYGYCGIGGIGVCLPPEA
# Method: (§2) Reductase assay and thin layer chromatography (TLC). […] Incubation was carried out for 2 hours at 37° C., at the end of which the duplicate samples were combined and dried in a speed-vacuum unit at room temperature. The residue was suspended in 50 μl of ethanol, which was then loaded onto a silica gel TLC plate. The plate was developed with butanol: acetic acid:water (60:15:25) as the solvent. The compounds were visualized by their yellow color.
# [11] = target: T2, MsrB (Escherichia coli, UniProt P0A746); experiment: Reductase assay with TLC of products; conditions: 100 nmoles substrate, 21 μg MsrB, 15 mM DTT, 2 hours 37° C.
# T2 sequence (P0A746 whole entry): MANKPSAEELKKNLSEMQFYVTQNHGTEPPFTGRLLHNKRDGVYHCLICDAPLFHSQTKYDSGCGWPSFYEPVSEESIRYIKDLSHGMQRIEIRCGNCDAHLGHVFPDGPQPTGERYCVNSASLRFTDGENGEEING
# Method: as §2
# [12] = system: Drosophila; experiment: Survival of flies exposed to paraquat oxidative stress; assay type: in vivo; conditions: for Flies alive: 2.5 mM paraquat, 2 mM sulindac; for Survival rate: 10 mM paraquat
# Method: Paraquat is a cytotoxic compound known to form superoxide radicals intracellularly. Three different concentrations of paraquat (i.e., 2.5 mM, 5 mM and 10 mM) were tested. […] After 3 days at 25° C., flies were transferred to test vials for counting.
# [13] = system: PC-12 cells; experiment: Viability of PC-12 cells treated with MPP+ (trypan blue exclusion); assay type: cell-based; conditions: for Dead cells (%) Exp 1 / Dead cells (%) Exp 2: 0.2 mM MPP+ 24 h
# [14] = system: G93A transgenic mice; experiment: G93A SOD1 transgenic mouse model of familial ALS; assay type: in vivo
# Method: Transgenic mice expressing a mutant form of SOD similar to that found in human ALS patients were used for this study. Transgenic male mice with a G93A human SOD1 (G1H/+) mutation (B6SJL-TgN (SOD1-G93A)1 Gur; Jackson Laboratories, ME) were used to breed with female B6SJL mice (Jackson Laboratories, ME). The F1 generations were genotyped for the G93A mutation with polymerase chain reaction (PCR) using tail DNA, and two specific primers from the SOD1 gene.
# Motor performance was assessed by Rotarod testing for each group and survival time was recorded.
# Motor function testing. Mice were trained for 2-3 days to become acquainted with the Rotarod apparatus (Columbus instruments, Columbus, Ohio). Rotarod performances were assessed in G93A mice starting at 60 days of age. The testing began with placing the mice on a rod that rotates at 12 rpms. The time period that the mice stayed on the rod before falling off was recorded as a measurement of the competence of their motor function. Three trials were performed, and the best result of the three trials was recorded representing the status of the motor performance. Mice were tested twice a week until they could no longer perform the task.
# Survival times. The initial sign of disease in G93A transgenic mice is a resting tremor that progresses to gait impairment, asymmetrical or symmetrical paralysis of the hind limbs, and ultimately complete paralysis at the end stage. Mice were sacrificed when they were unable to roll over within 20 seconds after being pushed on their side. This time point was determined to be the time of survival, at which time the mice were sacrificed.
# Light microscopic immunocytochemistry. Mice were perfused transcardially with cold 0.1M phosphate-buffered saline (PBS) for 1 minute followed by cold 4% paraformaldehyde in PBS for 10 minutes. The spinal cords were removed rapidly, blocked coronally, and post-fixed in 4% paraformaldehyde in PBS for 6 hours. Blocks were cryo-protected in 30% sucrose for 24 hours and were sectioned on a cryostat at a thickness of 35 micrometers. All protocols were conducted within NIH guidelines for animal research and were approved by the Institutional Animal Care and Use Committee (IACUC).
# Serial transverse sections (50 μm thick) were cut on a cryostat and collected for Nissl staining. Every fourth section was analyzed for neuronal volume and number using the optical fractionator and nucleator probes of the Stereo Investigator System (Microbrightfield, Colchester, Vt.). Six tissue sections of the lumbar spinal cord from each mouse were analyzed. All cells were counted from within the ventral horn below a horizontal line across the gray matter through the ventral border of the central canal. Photomicrographs were taken on a Zeiss Axiophot II microscope.
# Statistical analysis. Statistical analysis of survival was performed using Kaplan-Meier test for survival measured in postnatal days, Fisher's Test for mean age of death analysis, and Scheffe test for motor performance.
# [15] = target: T1, MsrA; experiment: Extraction reductase assay, sulindac as substrate; conditions: 250 ng MsrA
# Source text: (§3) Bacterial enzymes. […] The enzyme preparations had specific activities similar those reported earlier.
# [16] = target: T2, MsrB; experiment: Extraction reductase assay, sulindac as substrate; conditions: 10 μg MsrB
# Source text: as §3
# [17] = target: fRMsr (Escherichia coli, UniProt P76270); experiment: Extraction reductase assay, sulindac as substrate; conditions: 290 μg fRMsr
# Sequence of fRMsr (P76270 whole entry): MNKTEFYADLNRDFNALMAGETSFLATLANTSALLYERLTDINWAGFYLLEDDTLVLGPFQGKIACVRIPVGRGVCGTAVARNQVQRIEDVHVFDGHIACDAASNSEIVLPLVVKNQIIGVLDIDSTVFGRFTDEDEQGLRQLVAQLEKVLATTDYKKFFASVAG
# Source text: as §3
# [18] = system: fSMsr; experiment: Extraction reductase assay, sulindac as substrate; conditions: 200 μg fSMsr
# Source text: as §3
# [19] = system: MsrA1; experiment: Extraction reductase assay, sulindac as substrate; conditions: 40 μg MsrA1
# Source text: as §3
# [20] = target: MsrA from E. coli (Escherichia coli, UniProt P0A744); experiment: Reductase assay (NADPH oxidation): reduction of sulindac to sulindac sulfide by MsrA
# Sequence of MsrA from E. coli (P0A744 whole entry): as the sequence (P0A744 whole entry) above
# Method: Reductase assay. […] Incubations were performed at 37° C. for various times.
# At the end of incubation, 500 μl of 0.5 M Bis-Tris-Cl pH 5.5 and 3 ml of ethyl acetate were added. The tubes were mixed (vortexed) for 5 seconds (3 times). After separation, the organic phase was removed and another 3 ml of ethyl acetate were added. After mixing the organic phase was again removed.
# [21] = 0.1 mM sulindac 48 h pretreatment
# [22] = 0.2 mM sulindac 48 h pretreatment
# [23] = 0.5 mM sulindac 48 h pretreatment
# [24] = 0.5 mM sulindac pretreatment, 0.2 mM MPP+
# [25] = Tube 2: no MsrA, sulindac 5 μl (0.2M), thioredoxin 3 μl
# [26] = Tube 3: MsrA 1 μl (100 ng/μl), 20 min
# [27] = Tube 4: MsrA 2 μl (100 ng/μl), 20 min
# [28] = Tube 5: MsrA 4 μl (100 ng/μl), 20 min
# [29] = Tube 7: MsrA 2 μl (100 ng/μl), 10 min
# [30] = Tube 8: MsrA 2 μl (100 ng/μl), 30 min
smiles,measurement,setting,value
C[S@@+]([O-])CC[C@H](N)C(=O)O [Met-R—(O)],Effect of added excess Met(O) epimer on sulindac reductase activity,[1],only a slight effect
C[S+]([O-])CC[C@H](N)C(=O)O (stereo partly shown) [Met-S—(O)],Effect of added excess Met(O) epimer on sulindac reductase activity,[1],inhibited the activity in all three fractions
"CC1=C(CC(=O)O)c2cc(F)ccc2/C1=C\c1ccc([S@@+](C)[O-])cc1 [R-epimer, R-sulindac sulfoxide]",Nmoles formed,[2],2.41 nmol
same,Protection against TBHP compared with other forms,[3],protects better as compared to sulindac-(R+S) or Sulindac-S
same,TBHP concentration up to which protection is seen,[3],340 µM
same,Protection of hearts from ischemia/reperfusion damage (LDH release),[4],protects their hearts from oxidative damage
"CC1=C(CC(=O)O)c2cc(F)ccc2/C1=C\c1ccc([S@+](C)[O-])cc1 [S-epimer, S-sulindac sulfoxide]",Amount formed (picomoles),[5],17.7 picomoles
same,Amount formed (picomoles),[6],57 picomoles
same,Amount formed (picomoles),[7],7.9 picomoles
same,Amount formed (picomoles),[8],120.9 picomoles
same,Amount formed (picomoles),[9],35 picomoles
same,TBHP concentration at which error bars begin to overlap,[3],~220 µM
same,TBHP concentration up to which protection is seen,[3],~180 µM
CSCCC(NC(=O)CC1=C(C)/C(=C/c2ccc([S+](C)[O-])cc2)c2ccc(F)cc21)C(=O)O (stereo not shown) [SMO],Substrate for MsrA (reduction products on TLC),[10],substrate for MsrA
same,Substrate for MsrB (reduction products on TLC),[11],substrate for MsrB
CC1=C(CC(=O)O)c2cc(F)ccc2/C1=C\c1ccc([S+](C)[O-])cc1 (stereo not shown) [Sulindac],Nmoles formed,[2],2.75 nmol
same,Units of activity,[2]; 50 μg membrane fraction,5.1 nmoles of SS formed per hour
same,Flies alive,[12]; 3 day,approximately 95%
same,Flies alive,[12]; 6 day,~60%
same,Survival rate,[12]; after 2 days,~85%
same,Survival rate,[12]; after 3 days,~57%
same,Dead cells (%) Exp 1,[13]; [21],67%
same,Dead cells (%) Exp 2,[13]; [21],74%
same,Dead cells (%) Exp 1,[13]; [22],55%
same,Dead cells (%) Exp 2,[13]; [22],39%
same,Dead cells (%) Exp 1,[13]; [23],34%
same,Dead cells (%) Exp 2,[13]; [23],35%
same,Cell death,[13]; [24],approximately 35%
same,Cell survival,[13]; [24],~65%
same,Effect on viability of the cells,[13]; in the absence of MPP+,no effect on the viability of the cells
same,Motor performance (Rotarod performance times),[14]; 300 PPM and 450 PPM groups vs G93A controls,significant improvement in motor performance
same,Mean survival time,[14]; 300 PPM in food from postnatal day 30,135.17 ± 11.4 days
same,Increase in survival over control mice,[14]; 450 PPM in food,7%
same,Average survival,[14]; 450 PPM in food from postnatal day 30,131.17 ± 10.9 days
same,"Scheffe for motor performance, Mean Diff.",[14]; Controls vs Sulindac 300 PPM,−59.443
same,"Scheffe for motor performance, Mean Diff.",[14]; Controls vs Sulindac 450 PPM,−73.119
same,"Scheffe for motor performance, Mean Diff.",[14]; Sulindac 300 PPM vs Sulindac 450 PPM,−13.676
same,Counts of motor neurons in spinal cord sections,[14]; vs G93A controls,significantly higher counts of motor neurons
same,TBHP concentration after which protection declined rapidly,[3],80 to 100 µM
same,Substrate for MsrA (reduction products on TLC),[10],substrate for MsrA
same,Substrate for MsrB (reduction products on TLC),[11],not a substrate for MsrB
same,Units of activity,[15],11.3 nmoles of SS formed per hour
same,Units of activity,[16],0 nmoles of SS formed per hour
same,Units of activity,[17],0 nmoles of SS formed per hour
same,Units of activity,[18],0 nmoles of SS formed per hour
same,Units of activity,[19],<0.9 nmoles of SS formed per hour
same,OD340,[20]; [25],0.660
same,Sulindac sulfide,[20]; [25],0 nmol
same,OD340,[20]; [26],0.622
same,Sulindac sulfide,[20]; [26],5.8 nmol
same,Δ OD340,[20]; [26],0.038
same,OD340,[20]; [27],0.586
same,Sulindac sulfide,[20]; [27],11.2 nmol
same,Δ OD340,[20]; [27],0.074
same,OD340,[20]; [28],0.522
same,Sulindac sulfide,[20]; [28],21.0 nmol
same,Δ OD340,[20]; [28],0.138
same,OD340,"[20]; Tube 6: MsrA 2 μl, no thioredoxin, 20 min",0.684
same,OD340,[20]; [29],0.626
same,Sulindac sulfide,[20]; [29],5.2 nmol
same,Δ OD340,[20]; [29],0.034
same,OD340,[20]; [30],0.531
same,Sulindac sulfide,[20]; [30],19.4 nmol
same,Δ OD340,[20]; [30],0.129

# From patent US8871971B2, “Protection of normal cells” (priority 2002, dated 2014)
